pIC50: −log10 of the molar value. Where a SMILES comes first, the peptide text is derived from it. The star is where a group is joined. C16 diacid = O=C(O)CCCCCCCCCCCCCCC(=O)*
Assays:
human GIP receptor = target: T1, human GIP receptor (Homo sapiens, UniProt P48546); assay: cAMP accumulation, antagonism of human GIP(1‐42) in transfected COS‐7 cells; assay type: cell-based; conditions: COS‐7 transiently transfected with human GIPR; 10 min preincubation with antagonist, then human GIP(1‐42) at 50%–80% of Emax for 20 min; HitHunter cAMP; Hill slope −1.0; n = 5 independent experiments; read-out: IC50, inhibition of hGIP‐induced cAMP accumulation, human GIPR
T1 construct: host or cells: COS-7
T1 sequence (P48546 22-466): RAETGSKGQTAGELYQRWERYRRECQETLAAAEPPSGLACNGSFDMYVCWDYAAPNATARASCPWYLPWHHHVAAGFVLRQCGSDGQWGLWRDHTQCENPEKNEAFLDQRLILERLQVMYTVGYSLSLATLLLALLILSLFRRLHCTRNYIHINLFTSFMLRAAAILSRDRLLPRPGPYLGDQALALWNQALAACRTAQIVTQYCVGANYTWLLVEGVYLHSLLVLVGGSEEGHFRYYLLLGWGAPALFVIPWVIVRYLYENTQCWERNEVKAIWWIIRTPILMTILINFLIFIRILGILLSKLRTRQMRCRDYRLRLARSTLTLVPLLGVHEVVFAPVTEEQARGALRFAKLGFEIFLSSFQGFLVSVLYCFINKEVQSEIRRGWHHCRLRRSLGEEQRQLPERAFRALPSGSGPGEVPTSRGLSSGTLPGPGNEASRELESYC
Description: COS‐7 cells were cultured at 10% CO2 and 37°C in Dulbecco's Modified Eagle Medium 1885 supplemented with 10% foetal bovine serum, 2‐mM glutamine, 180‐units ml^−1 penicillin and […] streptomycin. Transient transfection of the cells with either human or mouse GIP receptor was performed using the calcium phosphate precipitation method as previously described (van der Velden et al., [2021]). A second set of cells was transiently transfected with either mouse GLP‐1 or GLP‐2 receptor. Following the day after transfection, the cells were seeded in white 96‐well plates with a density of 35.000 cells per well. The next day the assay was initiated by washing the cells with HEPES buffered saline (HBS) followed by an incubation step with HBS and 1‐mM 3‐isobutyl‐1‐methylxanthine for 30 min at 37°C. For agonist studies, the ligands were then added and incubated for an additional 30 min at 37°C. […] Luminescence was measured by PerkinElmer™ Envision 2014 Multilabel Reader. […]
Results are presented as mean ± SE. Data were analysed with one‐way and two‐way analysis of variance (ANOVA) with Tukey's or Sidak multiple comparisons test and Student's unpaired t tests where appropriate. […] For the in vitro data IC50 values were determined by nonlinear regression using GraphPad Prism 9 (San Diego, California, USA). […]

mouse GLP‐2 receptor = target: T2, mouse GLP‐2 receptor (Mus musculus, UniProt Q5IXF8); assay: cAMP accumulation, agonism in transfected COS‐7 cells; assay type: cell-based; conditions: increasing concentrations, COS‐7, n = 5
T2 construct: host or cells: COS-7
T2 sequence (Q5IXF8 1-512): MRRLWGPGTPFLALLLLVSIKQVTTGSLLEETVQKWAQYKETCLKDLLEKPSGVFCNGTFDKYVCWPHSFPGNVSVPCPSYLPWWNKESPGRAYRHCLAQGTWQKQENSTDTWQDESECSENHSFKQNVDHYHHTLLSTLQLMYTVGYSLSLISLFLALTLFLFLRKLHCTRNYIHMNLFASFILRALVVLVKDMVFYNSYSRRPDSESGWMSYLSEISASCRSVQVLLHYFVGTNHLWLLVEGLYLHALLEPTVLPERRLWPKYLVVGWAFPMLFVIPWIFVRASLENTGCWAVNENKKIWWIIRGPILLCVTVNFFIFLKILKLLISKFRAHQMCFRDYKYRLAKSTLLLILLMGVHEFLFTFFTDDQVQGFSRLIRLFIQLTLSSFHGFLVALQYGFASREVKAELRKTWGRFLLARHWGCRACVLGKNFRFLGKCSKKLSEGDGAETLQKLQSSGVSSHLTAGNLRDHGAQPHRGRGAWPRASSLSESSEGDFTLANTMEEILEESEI
Description: COS‐7 cells were cultured at 10% CO2 and 37°C in Dulbecco's Modified Eagle Medium 1885 supplemented with 10% foetal bovine serum, 2‐mM glutamine, 180‐units ml^−1 penicillin and […] streptomycin. Transient transfection of the cells with either human or mouse GIP receptor was performed using the calcium phosphate precipitation method as previously described (van der Velden et al., [2021]). A second set of cells was transiently transfected with either mouse GLP‐1 or GLP‐2 receptor. Following the day after transfection, the cells were seeded in white 96‐well plates with a density of 35.000 cells per well. The next day the assay was initiated by washing the cells with HEPES buffered saline (HBS) followed by an incubation step with HBS and 1‐mM 3‐isobutyl‐1‐methylxanthine for 30 min at 37°C. For agonist studies, the ligands were then added and incubated for an additional 30 min at 37°C. To test for antagonistic properties, the cells were first preincubated for 10 min with the antagonist with subsequent addition of the agonist and incubated for an additional 20 min. The HitHunter® cAMP assay (Eurofins DiscoverX, Fremont, USA) was carried out according to the manufacturer's protocol. Luminescence was measured by PerkinElmer™ Envision 2014 Multilabel Reader.
FIGURE 2 In vitro signalling profile of mGIPAnt‐1 on the mouse GLP‐1 and GLP‐2 receptor (R). […]

[1] = system: Female ovariectomised C57Bl6/J mice; assay: Oral glucose tolerance test after 7 weeks of treatment; assay type: in vivo, mouse
Description: After 7 weeks HFD and mGIPAnt‐1 treatment, an oral glucose tolerance test was performed. Animals were fasted from 08:00 AM to 11:00 AM and received 2‐g·kg^−1 glucose through oral gavage. Blood glucose was measured in the tail vein samples using a hand‐held glucometer (Accu‐Chek Mobile, Roche) at t = 0, 15, 30, 45, 60, 120 and 180 min. Retro‐orbital blood samples (75 μl) were taken using EDTA coated glass capillaries at t = 0, 15, 30 and 60 min and centrifuged at 3500g, 20 min, 4°C. Plasma was transferred into Eppendorf tubes on dry ice and stored at −20°C for later analysis of insulin measurements.
Insulin levels in intraperitoneal glucose tolerance test and oral glucose tolerance test plasma samples were measured using a mouse insulin ELISA (catalogue no. 10‐1247‐10; Mercodia AB, Uppsala, Sweden). Adiponectin levels in terminal plasma samples were measured using a mouse adiponectin ELISA kit (catalogue no. 80569, Crystal Chem, Elk Grove Village, IL, USA). Adiponectin samples were carefully diluted in kit‐specific assay buffer. The manufacturer's instructions were followed closely.

CC[C@H](C)[C@H](NC(=O)[C@H](CO)NC(=O)[C@H](Cc1ccc(O)cc1)NC(=O)[C@H](CC(=O)O)NC(=O)[C@H](CO)NC(=O)[C@@H](NC(=O)[C@H](Cc1ccccc1)NC(=O)[C@@H](NC(=O)CNC(=O)[C@@H](N)CCC(=O)O)[C@@H](C)O)[C@@H](C)CC)C(=O)N[C@@H](C)C(=O)N[C@@H](CCSC)C(=O)N[C@@H](CC(=O)O)C(=O)N[C@@H](CCCCN)C(=O)N[C@H](C(=O)N[C@@H](CCCCNC(=O)CCCCCCCCCCCCCCC(=O)O)C(=O)N[C@@H](CCC(N)=O)C(=O)N[C@@H](CCC(N)=O)C(=O)N[C@@H](CC(=O)O)C(=O)N[C@@H](Cc1ccccc1)C(=O)N[C@H](C(=O)N[C@@H](CC(N)=O)C(=O)N[C@@H](Cc1c[nH]c2ccccc12)C(=O)N[C@@H](CC(C)C)C(=O)N[C@@H](CC(C)C)C(=O)N[C@@H](C)C(=O)N[C@@H](CCC(N)=O)C(=O)N[C@@H](CCCCN)C(=O)NCC(=O)N[C@@H](CCCCN)C(=O)N[C@@H](CCCCN)C(=O)N[C@@H](CC(N)=O)C(=O)N[C@@H](CC(=O)O)C(=O)N[C@@H](Cc1c[nH]c2ccccc12)C(=O)N[C@@H](CCCCN)C(=O)N[C@@H](Cc1c[nH]cn1)C(=O)N[C@@H](CC(N)=O)C(=O)O)C(C)C)[C@@H](C)CC [mGIPAnt‐1] (H-EGTFISDYSIAMDKIK(C16 diacid)QQDFVNWLLAQKGKKNDWKHN-OH)
pIC50 (human GIP receptor): 7.96 | activation of mouse GLP‐2 receptor (cAMP) (mouse GLP‐2 receptor): does not induce activation | glucose curve and iAUC, OGTT ([1]; 7 weeks of 300 nmol·kg−1 s.c. daily, 2 g·kg−1 oral glucose): did not affect | insulin curve and iAUC, OGTT ([1]; 7 weeks of 300 nmol·kg−1 s.c. daily, 2 g·kg−1 oral glucose, ELISA): did not affect | fasting insulin levels ([1]; 7 weeks of treatment): not affected | fasting glucose levels, HFD ([1]; 7 weeks of treatment, versus Vehicle/HFD): significantly decreased
